Test results: US20240139147A1, “METHOD FOR IMPROVING BIOAVAILABILITY OF NAD+ DERIVATIVES” (HOBOOMLIFE BIO-TECHNOLOGY (SHENZHEN) CO., LTD., priority 2022, published 2024)

Columns and labels:
Format in all cases: in vivo
Settings in all cases: SD rats, intragastric; for NAD+ level in blood: 100 mg/kg NMN and/or 10 mg/kg quercetin
NAD+ [1] = experiment: Increasing the level of NAD+ by controlled-release NMN microspheres 1-3, blood NAD+ by HPLC (Example 3)
Procedure: (§1) 28 SD rats weighing about 200 g were purchased, and an experiment was carried out after one week of adaptive feeding. The 28 rats were divided into 7 groups, 4 rats per group (half male and half female). The rats in group 1 were not treated, the rats in group 2 were administered intragastrically with 100 mg/kg of NMN, the rats in group 3 were administered intragastrically with 10 mg/kg of quercetin, the rats in group 4 were administered intragastrically with 100 mg/kg of NMN and 10 mg/kg of quercetin at the same time, the rats in group 5 were administered intragastrically with the controlled-release microspheres 1 containing 100 mg/kg of NMN and 10 mg/kg of quercetin, the rats in group 6 were administered intragastrically with the controlled-release NMN microspheres 2 containing 100 mg/kg of NMN and 10 mg/kg of quercetin, and the rats in group 7 were administered intragastrically with the controlled-release NMN microspheres 3 containing 100 mg/kg of NMN and 10 mg/kg of quercetin.
Blood was collected from the rat in each groups via the tail vein at time points of 2 h, 2.5 h, 3 h, 3.5 h, 4 h, 4.5 h, 5 h, 5.5 h, and 6 h, respectively, after intragastric administration of corresponding microspheres, and 0.1 mL of blood was collected each time by each rat. After the vein blood collected from the rat in each groups at each time point was treated, the NAD+ level in the blood sample was tested by high performance liquid chromatography (HPLC). The test results of 4 rats in each group were averaged. […] Different parameters are set in the preparation processes of the controlled-release NMN microsphere 1, the controlled-release NMN microsphere 2, and the controlled-release NMN microsphere 3, so the time intervals between release peaks of quercetin and release peaks of NMN in the microspheres are different. A time difference between a peak of the releasing of quercetin and a peak of the releasing of NMN in the controlled-release NMN microsphere 1 is 1 h-2 h, a time difference between a peak of the releasing of quercetin and a peak of the releasing of NMN in the controlled-release NMN microsphere 2 is 0.5 h-1.5 h, and a time difference between a peak of the releasing of quercetin and a peak of the releasing of NMN in the controlled-release NMN microsphere 3 is 0 h-1 h.

NAD+ [2] = experiment: Increasing the level of NAD+ by controlled-release NMN microspheres 2, 9, 10, blood NAD+ by HPLC (Example 15)
Procedure: as §1, with “10 mg/kg quercetin at” for “10 mg/kg of quercetin at”, “the controlled-release NMN microspheres 2” for “the controlled-release microspheres 1”, “NMN microspheres 2 containing 100” for “controlled-release microspheres 1 containing 100”, “NMN microspheres 9 containing 100” for “NMN microspheres 2 containing 100”, “NMN microspheres 10 containing 100” for “NMN microspheres 3 containing 100”
Blood was collected from each rat in the groups via the tail vein at time points of 2 h, 2.5 h, 3 h, 3.5 h, 4 h, 4.5 h, 5 h, 5.5 h, and 6 h, respectively, after intragastric administration of corresponding microspheres, and 0.1 mL of blood was collected each time by each rat. After the vein blood collected from each rat in the groups at each time point was treated, the NAD+ level in the blood sample was tested by high performance liquid chromatography (HPLC). The test results of 4 rats in each group were averaged. […] There are time differences between a peak of the releasing of quercetin and a peak of the releasing of NMN in the controlled-release NMN microsphere 2, the controlled-release NMN microsphere 9, and the controlled-release NMN microsphere 10 that are prepared based on different mass ratios of quercetin (the CD38 inhibitor) to the excipient and different mass ratios of NMN to the excipient, and the time differences between a peak of the releasing of quercetin and a peak of the releasing of NMN in the three microspheres are consistent and are all about 0.5-1.5 h.

NAD+ [3] = experiment: Increasing the level of NAD+ by controlled-release NMN microspheres 2, 5, 6, blood NAD+ by HPLC (Example 9)
Procedure: as §1, with “the controlled-release NMN microspheres 2” for “the controlled-release microspheres 1”, “NMN microspheres 2 containing 100” for “controlled-release microspheres 1 containing 100”, “NMN microspheres 5 containing 100” for “NMN microspheres 2 containing 100”, “NMN microspheres 6 containing 100” for “NMN microspheres 3 containing 100”
Blood was collected from the rat in each groups via the tail vein at time points of 2 h, 2.5 h, 3 h, 3.5 h, 4 h, 4.5 h, 5 h, 5.5 h, and 6 h, respectively, after intragastric administration of corresponding microspheres, and 0.1 mL of blood was collected each time by each rat. After the vein blood collected from the rat in each groups at each time point was treated, the NAD+ level in the blood sample was tested by high performance liquid chromatography (HPLC). The test results of 4 rats in each group were averaged. […] There are time differences between a peak of the releasing of quercetin and a peak of the releasing of NMN in the controlled-release NMN microsphere 2, the controlled-release NMN microsphere 5, and the controlled-release NMN microsphere 6 that are prepared based on difference mass ratios of quercetin (the CD38 inhibitor) to NMN, and the time differences between a peak of the releasing of quercetin and a peak of the releasing of NMN in the three microspheres are consistent and are all about 0.5-1.5 h.

| Compound | level of NAD+ in the rat compared with the blank group (in words) (NAD+ [1]) | NAD+ level in blood (NAD+ [1]; 2 h) | NAD+ level in blood (NAD+ [1]; 2.5 h) | NAD+ level in blood (NAD+ [1]; 3 h) | NAD+ level in blood (NAD+ [1]; 3.5 h) | NAD+ level in blood (NAD+ [1]; 4 h) | NAD+ level in blood (NAD+ [1]; 4.5 h) | NAD+ level in blood (NAD+ [1]; 5 h) | NAD+ level in blood (NAD+ [1]; 5.5 h) | NAD+ level in blood (NAD+ [1]; 6 h) | level of NAD+ in the rat compared with the blank group (in words) (NAD+ [2]) | NAD+ level in blood (NAD+ [2]; 2 h) | NAD+ level in blood (NAD+ [2]; 2.5 h) | NAD+ level in blood (NAD+ [2]; 3 h) | NAD+ level in blood (NAD+ [2]; 3.5 h) | NAD+ level in blood (NAD+ [2]; 4 h) | NAD+ level in blood (NAD+ [2]; 4.5 h) | NAD+ level in blood (NAD+ [2]; 5 h) | NAD+ level in blood (NAD+ [2]; 5.5 h) | NAD+ level in blood (NAD+ [2]; 6 h) | also measured |
| --- | --- | --- | --- | --- | --- | --- | --- | --- | --- | --- | --- | --- | --- | --- | --- | --- | --- | --- | --- | --- | --- |
| NC(=O)c1ccc[n+]([C@@H]2O[C@H](COP(=O)([O-])O)[C@@H](O)[C@H]2O)c1 [NMN, nicotinamide mononucleotide] | can increase the level of NAD+ in the rat | 139 µM | 207 µM | 173 µM | 159 µM | 150 µM | 145 µM | 148 µM | 152 µM | 147 µM | can increase the level of NAD+ in the rat | 134 µM | 193 µM | 153 µM | 168 µM | 142 µM | 137 µM | 131 µM | 138 µM | 134 µM | level of NAD+ in the rat compared with the blank group (in words) (NAD+ [3]): can increase the level of NAD+ in the rat; NAD+ level in blood (NAD+ [3]; 2 h): 133 µM; NAD+ level in blood (NAD+ [3]; 2.5 h): 197 µM; NAD+ level in blood (NAD+ [3]; 3 h): 168 µM; NAD+ level in blood (NAD+ [3]; 3.5 h): 159 µM; NAD+ level in blood (NAD+ [3]; 4 h): 143 µM; NAD+ level in blood (NAD+ [3]; 4.5 h): 148 µM; NAD+ level in blood (NAD+ [3]; 5 h): 139 µM; NAD+ level in blood (NAD+ [3]; 5.5 h): 144 µM; NAD+ level in blood (NAD+ [3]; 6 h): 140 µM |
| O=c1c(O)c(-c2ccc(O)c(O)c2)oc2cc(O)cc(O)c12 [Quercetin, quercetin] | can increase the level of NAD+ in the rat | 145 µM | 152 µM | 178 µM | 160 µM | 147 µM | 150 µM | 151 µM | 144 µM | 149 µM | can increase the level of NAD+ in the rat | 121 µM | 140 µM | 176 µM | 158 µM | 146 µM | 138 µM | 141 µM | 124 µM | 132 µM | level of NAD+ in the rat compared with the blank group (in words) (NAD+ [3]): can increase the level of NAD+ in the rat; NAD+ level in blood (NAD+ [3]; 2 h): 127 µM; NAD+ level in blood (NAD+ [3]; 2.5 h): 146 µM; NAD+ level in blood (NAD+ [3]; 3 h): 180 µM; NAD+ level in blood (NAD+ [3]; 3.5 h): 164 µM; NAD+ level in blood (NAD+ [3]; 4 h): 151 µM; NAD+ level in blood (NAD+ [3]; 4.5 h): 144 µM; NAD+ level in blood (NAD+ [3]; 5 h): 147 µM; NAD+ level in blood (NAD+ [3]; 5.5 h): 130 µM; NAD+ level in blood (NAD+ [3]; 6 h): 137 µM |
